Data from PubChem BioAssay (NCI).
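Results reflect a 48-hour exposure of cells in 96-well plates to compound at five concentrations. TGI: total growth inhibition.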

Assays:
Assay in all cases: DTP human tumour cell line panel, 48 h
SW-620 colon = tested on: SW-620 colon
MALME-3M melanoma = tested on: MALME-3M melanoma
SR leukemia = tested on: SR leukemia
MCF7 breast = tested on: MCF7 breast
NCI-H23 lung = tested on: NCI-H23 lung
NCI-H460 lung = tested on: NCI-H460 lung
SNB-19 CNS = tested on: SNB-19 CNS
SF-268 CNS = tested on: SF-268 CNS
EKVX NSCLC = tested on: EKVX NSCLC
CCRF-CEM leukemia = tested on: CCRF-CEM leukemia
HCC-2998 colon = tested on: HCC-2998 colon
ACHN renal = tested on: ACHN renal
RPMI-8226 leukemia = tested on: RPMI-8226 leukemia
UO-31 renal = tested on: UO-31 renal
MDA-MB-435 = tested on: MDA-MB-435
SK-MEL-5 melanoma = tested on: SK-MEL-5 melanoma
HOP-62 NSCLC = tested on: HOP-62 NSCLC
NCI-H522 lung = tested on: NCI-H522 lung
UACC-257 melanoma = tested on: UACC-257 melanoma
SK-MEL-2 melanoma = tested on: SK-MEL-2 melanoma
MOLT-4 leukemia = tested on: MOLT-4 leukemia
OVCAR-3 ovarian = tested on: OVCAR-3 ovarian
SF-539 CNS = tested on: SF-539 CNS
HT29 colon = tested on: HT29 colon
SNB-75 CNS = tested on: SNB-75 CNS
K-562 leukemia = tested on: K-562 leukemia
HL-60(TB) leukemia = tested on: HL-60(TB) leukemia
LOX IMVI melanoma = tested on: LOX IMVI melanoma
MDA-N = tested on: MDA-N
KM12 colon = tested on: KM12 colon
HCT-116 colon = tested on: HCT-116 colon
MDA-MB-231 breast = tested on: MDA-MB-231 breast
SN12C renal = tested on: SN12C renal
SK-MEL-28 melanoma = tested on: SK-MEL-28 melanoma
DU-145 prostate = tested on: DU-145 prostate
OVCAR-8 ovarian = tested on: OVCAR-8 ovarian
IGROV1 ovarian = tested on: IGROV1 ovarian
BT-549 breast = tested on: BT-549 breast
OVCAR-5 ovarian = tested on: OVCAR-5 ovarian
HS 578T breast = tested on: HS 578T breast
A549 NSCLC = tested on: A549 NSCLC
UACC-62 melanoma = tested on: UACC-62 melanoma
786-0 renal = tested on: 786-0 renal
TK-10 renal = tested on: TK-10 renal
PC-3 prostate = tested on: PC-3 prostate
NCI/ADR-RES ovarian = tested on: NCI/ADR-RES ovarian
SF-295 CNS = tested on: SF-295 CNS
COLO 205 colon = tested on: COLO 205 colon
RXF 393 renal = tested on: RXF 393 renal
HCT-15 colon = tested on: HCT-15 colon

Which TGI (SW-620 colon) does the source give for `Cc1c2ccccc2cc2cccc[n+]12` here?
Its TGI is greater than 100 µM.

And the TGI (MALME-3M melanoma)?
The TGI was 27.9 µM.

And the TGI (SR leukemia)?
The TGI was greater than 100 µM.

And the TGI (MCF7 breast)?
Its TGI is greater than 100 µM.

And the TGI (NCI-H23 lung)?
Its TGI is 65.5 µM.

What about the TGI (NCI-H460 lung) of the same compound?
Its TGI is greater than 100 µM.

What about the TGI (SNB-19 CNS) of the same compound?
The TGI was greater than 100 µM.

What about the TGI (SF-268 CNS) of the same compound?
Its TGI is 40.4 µM.

What about the TGI (EKVX NSCLC) of the same compound?
The TGI was 92.5 µM.

What about the TGI (CCRF-CEM leukemia) of the same compound?
Its TGI is greater than 100 µM.

And the TGI (HCC-2998 colon)?
Its TGI is greater than 100 µM.

And the TGI (ACHN renal)?
Its TGI is greater than 100 µM.

What about the TGI (RPMI-8226 leukemia) of the same compound?
Its TGI is greater than 100 µM.

What about the TGI (UO-31 renal) of the same compound?
The TGI was 83.5 µM.

And the TGI (MDA-MB-435)?
Its TGI is greater than 100 µM.

What about the TGI (SK-MEL-5 melanoma) of the same compound?
Its TGI is 92.3 µM.

And the TGI (HOP-62 NSCLC)?
Its TGI is greater than 100 µM.

What about the TGI (NCI-H522 lung) of the same compound?
The TGI was 37.4 µM.

And the TGI (UACC-257 melanoma)?
Its TGI is 43.3 µM.

And the TGI (SK-MEL-2 melanoma)?
Its TGI is greater than 100 µM.

What about the TGI (MOLT-4 leukemia) of the same compound?
The TGI was greater than 100 µM.

What about the TGI (OVCAR-3 ovarian) of the same compound?
Its TGI is greater than 100 µM.

What about the TGI (SF-539 CNS) of the same compound?
The TGI was greater than 100 µM.

What about the TGI (HT29 colon) of the same compound?
Its TGI is greater than 100 µM.

And the TGI (SNB-75 CNS)?
Its TGI is 83.7 µM.

What about the TGI (K-562 leukemia) of the same compound?
The TGI was greater than 100 µM.

What about the TGI (HL-60(TB) leukemia) of the same compound?
The TGI was greater than 100 µM.

What about the TGI (LOX IMVI melanoma) of the same compound?
Its TGI is greater than 100 µM.

And the TGI (MDA-N)?
The TGI was greater than 100 µM.

And the TGI (KM12 colon)?
The TGI was 53 µM.

What about the TGI (HCT-116 colon) of the same compound?
Its TGI is greater than 100 µM.

What about the TGI (MDA-MB-231 breast) of the same compound?
The TGI was greater than 100 µM.

And the TGI (SN12C renal)?
The TGI was greater than 100 µM.

And the TGI (SK-MEL-28 melanoma)?
The TGI was 70.5 µM.

What about the TGI (DU-145 prostate) of the same compound?
Its TGI is greater than 100 µM.

What about the TGI (OVCAR-8 ovarian) of the same compound?
Its TGI is greater than 100 µM.

And the TGI (IGROV1 ovarian)?
Its TGI is greater than 100 µM.

And the TGI (BT-549 breast)?
Its TGI is greater than 100 µM.

What about the TGI (OVCAR-5 ovarian) of the same compound?
The TGI was greater than 100 µM.

And the TGI (HS 578T breast)?
The TGI was 73 µM.

And the TGI (A549 NSCLC)?
The TGI was greater than 100 µM.

And the TGI (UACC-62 melanoma)?
Its TGI is greater than 100 µM.

And the TGI (786-0 renal)?
The TGI was greater than 100 µM.

What about the TGI (TK-10 renal) of the same compound?
Its TGI is greater than 100 µM.

And the TGI (PC-3 prostate)?
Its TGI is greater than 100 µM.

What about the TGI (NCI/ADR-RES ovarian) of the same compound?
The TGI was greater than 100 µM.

What about the TGI (SF-295 CNS) of the same compound?
Its TGI is greater than 100 µM.

What about the TGI (COLO 205 colon) of the same compound?
The TGI was greater than 100 µM.

What about the TGI (RXF 393 renal) of the same compound?
Its TGI is greater than 100 µM.

And the TGI (HCT-15 colon)?
Its TGI is greater than 100 µM.
